# Where two headings read alike, the source gives them in different places.
# Columns and labels:
# [1] = test system: uteri obtained from fertilized pigs; assay: in vitro; format: in vitro ADME, porcine; conditions: 0.003 µM
# Text: (§1) Animals. Gilts (virgin female pigs) or sows (previously pregnant pigs) in estrus from the pig farm at Michigan State University were mated with boars of established fertility. Following insemination, the females were sacrificed at various times up to 25 days later. Uteri were removed and immediately chilled on ice. Fertilization was confirmed initially by microscopic examination of oviductal washings for fertilized ova (2-5 days following insemination) by histological inspection of the corpus luteum and uterus (8-13 days) and later (17-25 days) by gross inspection of the uterus for the amniotic sac and fetuses.
# (§2) Radioisotopes. [6,7-^3 H]E2 (45 Ci/mmol) was obtained from New England Nuclear Corp., Boston, Mass., and purified on ITLC-SA (Gelman Instrument Co.) with CHCl3 :CH3 OH (97:3) as the developing solvent. Na2^35 SO4 (800-1000 mCi/mmol) was obtained from New England Nuclear Corp. and used directly from the bottle.
# (§3) Incubation and isolation of [^3 H]E2 and Na2^35 SO4 metabolites. Samples of whole uterus (400 mg), minced in 0.9% saline, were filtered over medium coarse nylon gauze and placed in 2.5 ml of a modified Krebs-Ringer bicarbonate buffer (MgCl2 instead of MgSO4) with glucose (1.5 mg/ml). After the [6,7-^3 H]E2 (3×10^-9 M) and Na2^35 SO4 (1×10^-4 M) were added, the mixture was incubated for 2 hr at 37° C. under […]. The incubate was then boiled for 2 min. to stop the enzymatic reactions. A control was included with each experiment, which contained all of the incubation mixture, and was carried throughout the entire procedure except for the actual incubation.
# (§4) The filtered tissue was extracted in 2:1 CHCl3 :CH3 OH (10 ml) for 2 hr, and this extract, reduced almost to dryness, was recombined with the incubation supernatant. This combination in turn was extracted with ethyl acetate (2.5 ml, 3 times) at neutral pH in the presence of (NH4)2 SO4 (0.5 g/ml). The concentrated extract was applied to an alumina column in benzene. After the column was washed with benzene, the unconjugated estrogens were eluted with 100 ml ethanol and the estrogen sulfates with ethanol:water (1:1, 100 ml). The conjugated fraction was further separated from trailing free estrogens by a single development of instant thin layer chromatography (SG; chloroform:acetone:acetic acid, 110:35:6). Marker estrogen sulfates run simultaneously were identified by staining with 50% methylene blue reagent (25 mg % methylene blue in 0.05 N sulfuric acid) in acetone.
# (§5) The estrogen sulfates were hydrolyzed with aryl sulfatase^3 (5 mg/10 ml) in 0.1 M sodium acetate buffer (pH 5) for two days at 37° C. (without shaking or mixing) and the estrogen moiety extracted into ether. Both the unconjugated estrogens and those hydrolyzed from sulfate esters were further purified by the procedure of Brooks et al, Biochim. Biophys. Acta, 104:250-260 (1965) and the metabolites identified and quantitated on instant thin layer chromatography (SA; chloroform:methanol, 97:3) in accordance with Pack et al (1974), supra.
# [2] = in vitro; format: in vitro ADME, porcine; conditions: pig, minced uterus
# Text: as §1, §2, §3, §4, §5
# [3] = test system: uteri obtained from fertilized pigs; conditions: average, uteri undergoing normal estrous cycle, regardless of phase; 0.003 µM; cited from earlier work
smiles,measurement,setting,value
"C[C@]12CC[C@@H]3c4ccc(O)cc4CC[C@H]3[C@@H]1CC[C@@H]2O [1,3,5(10)Estratriene-3,17β-diol]",sulfurylation in gilt uterus,"[1]; 2-hour incubation, 5 to 23 days following fertilization, P<0.05 vs sow",57.2±8.9%
same,sulfurylation in sow uterus,"[1]; 2-hour incubation, 8 to 25 days following fertilization, P<0.05 vs gilt",41.2±6.0%
same,"Percent of added E2 found as E1 S, mean","[1]; Table III mean line, days 5-25 (SD ± 6.4)",32.6%
same,"Percent of added E2 found as Total E1, mean","[1]; Table III mean line, days 5-25 (SD ± 10.1)",49.8%
same,Percent of added E2 found as Free E1,"[1]; Table III, 2 h incubation, 3×10^-9 M [3H]E2, by days following fertilization (S sow, G gilt), listed as E2, 120 min",16.4%
same,conversion of added labeled E2 to E1,"[1]; metestrus, uteri from fertilized pigs",13.6%
same,"metabolised at 2 h, 0.003 µM","[2]; 2-hour incubation, day of insemination, read-out: sulfurylation of the 3-hydroxyl group, day of insemination",3%
same,"metabolised at 2 h, 0.003 µM","[2]; Table III mean line (SD ± 5.7 on next line), read-out: Percent of added E2 found as Free E1, mean",16.6%
same,"metabolised at 2 h, 0.003 µM","[2]; Table III, 25 (A), anovulatory gilt, 2 h incubation, read-out: Percent of added E2 found as Total E1, anovulatory gilt",12.9%
same,"added E2 found as free E1, normal estrous cycle",[3],18.7±7.2%

# Source: patent publication US4340602A, “Compositions inhibiting estrogen sulfotransferase activity” (Wayne State University, priority 1978, dated 1982)
